In patent US20130324576A1, “THERAPEUTIC COMPOUNDS” (Takeda Pharmaceutical Company Limited, priority 2012, published 2013) one finds IC50 data, which are given here for 35 compounds.

SMILES strings stand for the structures.

The target in the assay is T1, human PKR1 receptors (Homo sapiens, UniProt Q8TCW9).
T1 construct: expressed in transfected cells; host or cells: RBL2H3 cells (rat basophilic leukaemia line) expressing human PKR1
T1 sequence (Q8TCW9 whole entry): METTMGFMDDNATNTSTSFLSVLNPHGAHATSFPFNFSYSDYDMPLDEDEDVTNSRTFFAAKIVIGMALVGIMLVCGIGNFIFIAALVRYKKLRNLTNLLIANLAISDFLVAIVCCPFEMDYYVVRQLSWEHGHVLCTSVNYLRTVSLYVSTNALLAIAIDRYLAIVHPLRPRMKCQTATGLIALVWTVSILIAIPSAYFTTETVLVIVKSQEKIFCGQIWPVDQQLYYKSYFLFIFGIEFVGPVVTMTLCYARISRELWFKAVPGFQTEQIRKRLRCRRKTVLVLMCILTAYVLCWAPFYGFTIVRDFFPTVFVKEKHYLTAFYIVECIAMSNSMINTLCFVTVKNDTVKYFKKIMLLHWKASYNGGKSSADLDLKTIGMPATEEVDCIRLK
Briefly: PKR1 antagonist assay: block of PK1-mediated intracellular calcium release (FLIPR Tetra, Calcium 5 dye). The note with it: RBL2H3 cells expressing human PKR1; 10 min pre-incubation, stimulation with PK1 at EC80; calcium fluorescence. The format is cell-based. The procedure:
Prokineticin receptor 1 (PKR1) antagonists may be functionally assessed by measurement of change in intracellular calcium levels induced by Gq mediated increase in inositol triphosphate (IP3) levels. The ability of a compound to block the intracellular release of calcium mediated by PK1 in RBL2H3 cells expressing human PKR1 receptors is determined as a measure of the compound's antagonist activity in vitro.
Approximately 10,000 cells per assay well are seeded in normal culture medium in a 384 well plate (Corning). Twenty-four hours after seeding, the cells are loaded with a calcium sensitive fluorescent dye by replacing the culture medium with assay buffer (1× Hanks buffered saline, 25 mM HEPES, 0.1% w/v fatty acid free BSA (bovine serum albumin), pH 7.4) containing 1 mM probenecid and 1× Calcium 5 Reagent (Molecular Devices). Cells are incubated at 37° C. for 1 hour to allow for dye uptake.
To test for antagonist activity, test compounds at a final concentration range between 0.32 nM-10 μM (diluted in assay buffer) are added to the assay wells and allowed to incubate for 10 minutes prior to stimulation with PK1. After incubation with test compounds the assay plate is placed in a FLIPR Tetra (Molecular Devices) and PK1 (diluted in assay buffer) is added at the determined EC80 concentration (final). Ligand-dependent changes in intracellular calcium levels are determined by measuring changes in fluorescence of the dye at […] following excitation at 485 nm.
Turning to `Cc1nn(C)c(C)c1S(=O)(=O)N1CCC(Cc2ccc(Cl)cc2F)CC1` [Example 83, 4-(4-Chloro-2-fluorobenzyl)-1-((1,3,5-trimethyl-1H-pyrazol-4-yl)sulfonyl)piperidine], the half-maximal inhibitory concentration (IC50) came to 730 nM.
For the compound `Cc1nn(C)c(C)c1S(=O)(=O)N1CCC(Oc2ccc(Cl)cc2)CC1C` (centres unmarked) [Example 24, 4-(4-Chlorophenoxy)-2-methyl-1-[(1,3,5-trimethyl-1H-pyrazol-4-yl)sulfonyl]piperidine], the IC50 amounted to 1500 nM.
Regarding `Cc1n[nH]c(C)c1S(=O)(=O)N1CCC(C(C)(O)c2ccc(Cl)cc2)CC1` (centres unmarked) [Example 101, 1-(4-Chlorophenyl)-1-(1-((3,5-dimethyl-1H-pyrazol-4-yl)sulfonyl)piperidin-4-yl)ethanol], the 50% inhibitory concentration (IC50) is 2380 nM.
Under `COc1ccc(OC2CCN(S(=O)(=O)c3c(C)n[nH]c3C)CC2)cc1F` [Example 41, 1-(3,5-Dimethyl-1H-pyrazole-4-sulfonyl)-4-(3-fluoro-4-methoxyphenoxy)piperidine] stands 5900 nM; under `CCOC(c1ccc(Cl)cc1)C1CCN(S(=O)(=O)c2c(C)n[nH]c2C)CC1` (centres unmarked) [Example 104, 4-((4-Chlorophenyl)(ethoxy)methyl)-1-((3,5-dimethyl-1H-pyrazol-4-yl)sulfonyl)piperidine], 720 nM.
With `Cc1nn(C)c(C)c1S(=O)(=O)N1CCC(Oc2ccc(Cl)cc2)CC1` [Example 5, 4-(4-Chlorophenoxy)-1-[(1,3,5-trimethyl-1H-pyrazol-4-yl)sulfonyl]piperidine] the figure was 530 nM; with `COc1cc(Cl)ccc1CC1CCN(S(=O)(=O)c2c(C)n[nH]c2C)CC1` [Example 78, 4-(4-Chloro-2-methoxybenzyl)-1-((3,5-dimethyl-1H-pyrazol-4-yl)sulfonyl)piperidine], 70 nM.
Under `Cc1n[nH]c(C)c1S(=O)(=O)N1CCC(Oc2ccc(OC(F)(F)F)cc2)CC1` [Example 32, 1-[(3,5-Dimethyl-1H-pyrazol-4-yl)sulfonyl]-4-[4-(trifluoromethoxy)phenoxy]piperidine] stands 3400 nM; under `Cc1nn(C)c(C)c1S(=O)(=O)N1CCC(Oc2ccc(Cl)cn2)CC1` [Example 48, 5-Chloro-2-((1-((1,3,5-trimethyl-1H-pyrazol-4-yl)sulfonyl)piperidin-4-yl)oxy)pyridine], 3800 nM.
For the compound `Cc1nn(C)c(C)c1S(=O)(=O)N1CCC(Oc2ccc(C#N)cc2)CC1` [Example 7, 4-({1-[(1,3,5-Trimethyl-1H-pyrazol-4-yl)sulfonyl]piperidin-4-yl}oxy)benzonitrile], the IC50 was found to be 7300 nM.
With `Cc1nn(C)c(C)c1S(=O)(=O)N1CCC(Oc2ccc(Cl)cc2)C(C)C1` (centres unmarked) [Example 21, 4-(4-Chlorophenoxy)-3-methyl-1-[(1,3,5-trimethyl-1H-pyrazol-4-yl)sulfonyl]piperidine] the figure was 2100 nM; with `Cc1n[nH]c(C)c1S(=O)(=O)N1CCC(C(F)c2ccc(Cl)cc2)CC1` (centres unmarked) [Example 105, 4-((4-Chlorophenyl)fluoromethyl)-1-((3,5-dimethyl-1H-pyrazol-4-yl)sulfonyl)piperidine], 410 nM; with `Cc1n[nH]c(C)c1S(=O)(=O)N1CCC(F)(Cc2ccc(Cl)cc2F)CC1` [Example 80, 4-(4-Chloro-2-fluorobenzyl)-1-((3,5-dimethyl-1H-pyrazol-4-yl)sulfonyl)-4-fluoropiperidine], 810 nM.
With `CCn1nc(C)c(S(=O)(=O)N2CCC(Oc3ccc(C)cc3)CC2)c1C` [Example 9, 1-[(1-Ethyl-3,5-dimethyl-1H-pyrazol-4-yl)sulfonyl]-4-(4-methylphenoxy)piperidine] the figure was 2300 nM; with `Cc1n[nH]c(C)c1S(=O)(=O)N1CCC(Oc2ccc(Cl)c(Cl)c2)CC1` [Example 2, 4-(3,4-Dichlorophenoxy)-1-[(3,5-dimethyl-1H-pyrazol-4-yl)sulfonyl]piperidine], 1000 nM.
Under `COc1cc(Cl)ccc1CC1(OC)CCN(S(=O)(=O)c2c(C)n[nH]c2C)CC1` [Example 86, 4-(4-Chloro-2-methoxybenzyl)-1-((3,5-dimethyl-1H-pyrazol-4-yl)sulfonyl)-4-methoxypiperidine] stands 4600 nM; under `COc1cc(Cl)ccc1CC1CCN(S(=O)(=O)c2c(C)nn(C)c2C)CC1` [Example 79, 4-(4-Chloro-2-methoxybenzyl)-1-((1,3,5-trimethyl-1H-pyrazol-4-yl)sulfonyl)piperidine], 50 nM; under `Cc1ccc(OC2CCN(S(=O)(=O)c3c(C)nn(C)c3C)CC2)cc1` [Example 4, 4-(4-Methylphenoxy)-1-[(1,3,5-trimethyl-1H-pyrazol-4-yl)sulfonyl]piperidine], 820 nM.
`Cc1cnn(C)c1S(=O)(=O)N1CCC(Oc2ccc(Cl)cc2)CC1` [Example 37, 4-(4-Chlorophenoxy)-1-(1,4-dimethyl-1H-pyrazole-5-sulfonyl)piperidine]: the IC50 is 7400 nM.
With `Cc1n[nH]c(C)c1S(=O)(=O)N1CCC(O)(Cc2ccc(Cl)cc2)CC1` [Example 108, 4-(4-Chlorobenzyl)-1-((3,5-dimethyl-1H-pyrazol-4-yl)sulfonyl)piperidin-4-ol] the figure was 1640 nM; with `Cc1n[nH]c(C)c1S(=O)(=O)N1CCC(C#N)(Cc2ccc(Cl)cc2)CC1` [Example 64, 4-(4-Chlorobenzyl)-1-((3,5-dimethyl-1H-pyrazol-4-yl)sulfonyl)piperidine-4-carbonitrile], 890 nM.
With `Cc1nn(C)c(C)c1S(=O)(=O)N1CCC(C(=O)c2ccc(Cl)c(Cl)c2)CC1` [Example 50, (3,4-Dichlorophenyl)(1-((1,3,5-trimethyl-1H-pyrazol-4-yl)sulfonyl)piperidin-4-yl)methanone] the figure was 2100 nM.
With `Cc1n[nH]c(C)c1S(=O)(=O)N1CCC(C(F)c2ccc(Cl)cc2)CC1` (single isomer, unassigned) [Example 106, 4-((4-Chlorophenyl)fluoromethyl)-1-((3,5-dimethyl-1H-pyrazol-4-yl)sulfonyl)piperidine] the figure was 4000 nM; with `Cc1n[nH]c(C)c1S(=O)(=O)N1CCC(C(C#N)c2ccc(Cl)cc2)CC1` (centres unmarked) [Example 93, 2-(4-Chlorophenyl)-2-(1-((3,5-dimethyl-1H-pyrazol-4-yl)sulfonyl)piperidin-4-yl)acetonitrile], 610 nM; with `Cc1nn(C)cc1S(=O)(=O)N1CCC(Oc2ccc(Cl)cc2Cl)CC1` [Example 27, 4-(2,4-Dichlorophenoxy)-1-[(1,3-dimethyl-1H-pyrazol-4-yl)sulfonyl]piperidine], 5600 nM.
In the case of `Cc1nn(C)c(C)c1S(=O)(=O)N1CCC(Oc2c(F)cc(Cl)cc2F)CC1` [Example 46, 4-(4-Chloro-2,6-difluorophenoxy)-1-(trimethyl-1H-pyrazole-4-sulfonyl)piperidine], the half-maximal inhibitory concentration (IC50) came out at 1000 nM.
With `Cc1n[nH]c(C)c1S(=O)(=O)N1CCC(C#N)(Cc2ccc(Cl)cc2Cl)CC1` [Example 65, 4-(2,4-Dichlorobenzyl)-1-((3,5-dimethyl-1H-pyrazol-4-yl)sulfonyl)piperidine-4-carbonitrile] the figure was 940 nM.
`Cc1nn(C)c(C)c1S(=O)(=O)N1CCC(O)(Cc2ccc(Cl)c(Cl)c2)CC1` [Example 69, 4-(3,4-Dichlorobenzyl)-1-((1,3,5-trimethyl-1H-pyrazol-4-yl)sulfonyl)piperidin-4-ol]: the IC50 was 6470 nM.
With `Cc1nn(C)c(C)c1S(=O)(=O)N1CCC(O)(Cc2ccc(Cl)cc2Cl)CC1` [Example 59, 4-(2,4-Dichlorobenzyl)-1-((1,3,5-trimethyl-1H-pyrazol-4-yl)sulfonyl)piperidin-4-ol] the figure was 2400 nM.
With `Cc1nn(C)c(C)c1S(=O)(=O)N1CCC(Oc2ccc(Cl)cc2C#N)CC1` [Example 31, 5-Chloro-2-{[1-(trimethyl-1H-pyrazole-4-sulfonyl)piperidin-4-yl]oxy}benzonitrile] the figure was 310 nM; with `COc1cc(Cl)ccc1CC1(F)CCN(S(=O)(=O)c2c(C)nn(C)c2C)CC1` [Example 91, 4-(4-Chloro-2-methoxybenzyl)-4-fluoro-1-((1,3,5-trimethyl-1H-pyrazol-4-yl)sulfonyl)piperidine], 140 nM; with `COC(c1ccc(Cl)cc1)C1CCN(S(=O)(=O)c2c(C)n[nH]c2C)CC1` (centres unmarked) [Example 96, 4-((4-Chlorophenyl)(methoxy)methyl)-1-((3,5-dimethyl-1H-pyrazol-4-yl)sulfonyl)piperidine], 80 nM.
Under `COc1c(F)cc(OC2CCN(S(=O)(=O)c3c(C)nn(C)c3C)CC2)cc1F` [Example 44, 4-(3,5-Difluoro-4-methoxyphenoxy)-1-(trimethyl-1H-pyrazole-4-sulfonyl)piperidine] stands 5100 nM; under `Cc1n[nH]c(C)c1S(=O)(=O)N1CCC(C(CO)c2ccc(Cl)cc2)CC1` (centres unmarked) [Example 100, 2-(4-Chlorophenyl)-2-(1-((3,5-dimethyl-1H-pyrazol-4-yl)sulfonyl)piperidin-4-yl)ethanol], 9420 nM; under `COC(c1ccc(Cl)cc1)C1CCN(S(=O)(=O)c2c(C)nn(C)c2C)CC1` (centres unmarked) [Example 99, 4-((4-Chlorophenyl)(methoxy)methyl)-1-((1,3,5-trimethyl-1H-pyrazol-4-yl)sulfonyl)piperidine], 60 nM.

Usually IC50 stands for the concentration needed to halve the response being measured.
